The record followed here is patent US20160362402A1, “NOVEL COMPOUNDS HAVING ANTI-ALLODYNIC AND ANTIHYPERALGESIC ACTIVITY” (CONSORZIO INTERUNIVERSITARIO NAZIONALE PER LA SCIENZA E …, priority 2014, published 2016).

Series [1] has as its system primary rat astrocytes. The series is described as follows: Superoxide anion production in primary rat astrocytes incubated with oxaliplatin. The class given is cell-based. The settings on record: oxaliplatin 100 μM alone, 4 hours; control 16.9±0.3 μM. Here is the method: FIG. 1. Evaluation of the antioxidant profile of ADM-12 in a rat primary astrocytes cell culture *P<0.01 with respect to the untreated control and ̂P<0.01 with respect to astrocytes treated with oxaliplatin.
The antioxidant profile of ADM-12 also emerges in a cell culture of primary rat astrocytes (FIG. 1). Incubation of cells with the chemotherapic agent oxaliplatin 100 μM induces a significant production of the superoxide anion, which after 4 hours increases from 16.9±0.3 μM of the control to 31.1±2.1 μM; co-treatment with ADM-12 100 μM reduces the production of oxygen free radicals to 21.0±0.4 μM.

Series [2] can be described thus: Compatibility with oxaliplatin in physiological solution (1H NMR, mass spectra). It is filed as physicochemical.

In the case of `O=C1[O][Pt]2([NH][C@@H]3CCCC[C@H]3[NH]2)[O]C1=O` [oxaliplatin], the “production of the superoxide anion” value in series [1] worked out at 31.1 ± 2.1 µM. In series [2] (ADM-12 and oxaliplatin mixed in physiological solution), the “structural integrity when mixed” value is “remain structurally unaltered”. In addition, in series [2] (ADM-12 with oxaliplatin in physiological solution, 24 and 48 hours, room temperature and 37° C.), the “signal variations at 1H NMR and in mass spectra” value is reported as “does not show signal variations”.
